The text below walks through data of US20240024494A1, “SMALL-MOLECULE CONJUGATE AND USE THEREOF” (SHANGHAI MEWSGEN BIOTECHNOLOGY CO., LTD, priority 2020, published 2024).

The nature of data set [1]: In-vivo antitumor activity test in human stromal tumor SHG44 (subcutaneous tumor block in nude mice). Also noted: species or system BALB/C nude mice. Particulars: for RTV (d22) / Tumor inhibition rate % / Body weight of animals (After a tumor is removed): SHG44; for Tumor inhibition rate % / Body weight of animals (After a tumor is removed): d22; for Body weight of animals (After a tumor is removed): in g (unit assumed). The protocol: (§1) Animals: BALB/C nude mice (SPF grade), male, and 18-20 g. The compounds were firstly added with DMSO at a total amount of 4%, then added with Tween-80 at a total amount of 2% for assisting dissolution, then added with PEG300 at a total amount of 5%, and finally added with sterilized normal saline to be prepared into a solution at 1 mg/mL. Idasanutlin was firstly added with DMSO at a total amount of 4%, then added with Tween-80 at a total amount of 2% for assisting dissolution, then added with PEG300 at a total amount of 5%, and finally added with sterilized normal saline to be prepared into a solution at 2.5 mg/mL.
(§2) A well-grown human stromal tumor SHG44 mass was taken and aseptically cut into uniform small blocks of about 3 mm in size, and a right axilla of each mouse was subcutaneously inoculated with one block through a trocar. […] The animals were regrouped according to a tumor size. The animals with too large and too small tumors were sifted out. An average tumor volume in each group was approximately the same. An administration was started according to the following solution with an administration volume of 0.2 mL/20 g body weight. A long diameter a (mm) of the tumor and a short diameter b (mm) vertical to the tumor were measured by a digital display electronic caliper 2 times a week from day 9 of the inoculation. A tumor volume was calculated by the formula: TV=ab^2/2, and a relative tumor volume was calculated by the formula: RTV=Vt/Vo, wherein Vo was the obtained tumor volume measured at a cage separation (i.e. d1) and Vt was the tumor volume measured at each time. The animals were sacrificed 30 days after the inoculation (d22) and weighed, tumor mass was obtained by dissection and weighed, and the results were determined according to the following formula: […]

In data set [2] the test system is human gastric carcinoma MGC803. The experiment in a line: In-vivo antitumor activity test in human gastric carcinoma MGC803 (subcutaneous tumor block in nude mice). Also noted: species or system BALB/C nude mice. Particulars: for RTV (d22) / Body weight of animals (After a tumor is removed) / Tumor inhibition rate %: MGC803; for Body weight of animals (After a tumor is removed) / Tumor inhibition rate %: d22. The procedure:
as §1
as §2, with “gastric carcinoma MGC803” for “stromal”, “tumor” for “tumor SHG44”

In data set [3] the test system is HCT116 (human colon carcinoma cells). The experiment in a line: Tumor cell proliferation inhibition test, CCK-8 method (Example 19). It is filed as cell-based. The procedure:
(§3) A part of the compounds prepared in the examples of the present disclosure were subjected to a tumor cell proliferation inhibition test by using a CCK-8 method. A cell line HCT116 (human colon carcinoma cells) and SW1990 (human pancreatic carcinoma cells) were purchased from Shanghai Meixuan Technology Co., Ltd. Samples (a part of the compounds prepared in the examples) were dissolved in DMSO (Merck), prepared into a concentration of 10 mM, and finally triply diluted in DMEM or McCoy's 5A 1640 medium to 8 concentration gradients. A cell culture solution was collected when a cell culture met a test requirement, 10 μL of the cell culture solution was uniformly coated on a cell counting plate, cells were counted for 3 times under a microscope, and a cell density was calculated by taking an average value; and a 96-well plate (Corning, #3599) was taken, 200 μL of the cell culture solution was added into each well for cell inoculation at a cell concentration of 6×10^3 cells per well, and the inoculated 96-well plate was incubated in a cell incubator containing 5% CO2 at 37° C. for 24 h. An old culture medium was removed by suction, 200 μL of the triply diluted sample DMEM or McCoy's 5A 1640 medium at an initial concentration of 10 μmol/L was added to each well, the DMSO content was controlled to be 1%, three duplicate wells were set, PBS was used as a blank control, and the plate was incubated in the incubator for 72 h. The original DMEM or McCoy's 5A 1640 medium in the 96-well plate and a PBS buffer in a final row were sucked out, a prepared CCK-8 solution (90% DMEM or McCoy's 5A 1640 medium+10% CCK-8) was added, the mixture was incubated in an incubator, and an absorbance was read by using a Biotek microplate reader. Cell growth inhibition rate IC %=(blank control well OD value−administration well OD value)/blank control well OD value×100%.

Data set [4] has as its system SW1990 (human pancreatic carcinoma cells). Described as above. It is filed as cell-based. The protocol: as §3
Data set [5] concerns human esophageal cancer KYSE-150. The experiment in a line: In-vivo antitumor activity test in human esophageal cancer KYSE-150 (subcutaneous tumor block in nude mice). The arrangement: species or system BALB/C nude mice. Particulars: for RTV (d22) / Body weight of animals (After a tumor is removed) / Tumor inhibition rate %: KYSE-150; for Body weight of animals (After a tumor is removed) / Tumor inhibition rate %: d22. The procedure: as §1
as §2, with “esophageal cancer KYSE-150” for “stromal”, “tumor” for “tumor SHG44”

Where [6] appears, read: 10 mg/kg, Ipx5 each week for 2 continuous weeks.

Molecules are shown by their SMILES. Like-named read-outs stand apart in the source and are kept apart here.

Turning to `COc1cc(C(=O)O)ccc1NC(=O)[C@@H]1N[C@@H](CC(C)(C)C)[C@](C#N)(c2ccc(Cl)cc2F)[C@H]1c1cccc(Cl)c1F` [Idasanutlin, reference compound], the “RTV (d22)” value was determined as 2.95 ± 0.41 in data set [1] (25 mg/kg, Igx14); 2.74 ± 0.81 in data set [2] (25 mg/kg, Igx14); 4.79 ± 0.41 in data set [5] (25 mg/kg, Igx14). The “Tumor inhibition rate %” value in data set [1] (25 mg/kg, Igx14) was found to be 39.59%; in data set [2] (25 mg/kg, Igx14) it was 31.36%; in data set [5] (25 mg/kg, Igx14), 51.17%. The “Body weight of animals (After a tumor is removed)” value stood at 24.47 ± 1.66 in data set [1] (25 mg/kg, Igx14); 23.58 ± 1.56 in data set [2] (25 mg/kg, Igx14); 24.03 ± 0.95 in data set [5] (25 mg/kg, Igx14). Also, the IC50 in data set [3] (Homo sapiens, HCT-116, CCK-8, 72 h, Table 1, read-out: IC50 HCT116) was 1060 nM; in data set [4] (Homo sapiens, SW1990, CCK-8, 72 h, Table 1, read-out: IC50 SW1990), 2980 nM.
As for `COc1cc(C(=O)NCCOCCOCCOCCOCCC(=O)N[C@@H](C(=O)N[C@@H](CCCNC(N)=O)C(=O)Nc2ccc(COC(=O)N3CCN(C(=O)O[C@H]4CC[C@@]5(C)[C@H](CC[C@@H]6[C@@H]5[C@H](O)C(=O)[C@]5(C)[C@@H](c7ccc(=O)oc7)CC[C@]65O)C4)CC3)cc2)C(C)C)ccc1NC(=O)[C@@H]1N[C@@H](CC(C)(C)C)[C@](C#N)(c2ccc(Cl)cc2F)[C@H]1c1cccc(Cl)c1F` [Compound I-1], in data set [1], the “in-vivo antitumor activity of the human stromal tumor SHG44 (in words)” value is recorded as “good in-vivo antitumor activity”. In addition, the “RTV (d22)” value in data set [1] (setting [6]) worked out at 2.34 ± 0.32; in data set [2] (setting [6]), 2.45 ± 0.54; in data set [5] (setting [6]) it was 4.87 ± 0.92. In addition, the “Tumor inhibition rate %” value in data set [1] (setting [6]) turned out to be 52.03%; in data set [2] (setting [6]), 38.54%; in data set [5] (setting [6]), 50.45%. The “Body weight of animals (After a tumor is removed)” value in data set [1] (setting [6]) was 24.78 ± 2.38; in data set [2] (setting [6]) it was 26.15 ± 1.14; in data set [5] (setting [6]), 24.51 ± 1.40. In addition, the “in-vivo antitumor activity of the human gastric carcinoma MGC803 (in words)” value in data set [2] was “good in-vivo antitumor activity”. Besides, the IC50 in data set [3] (72 h) is 34 nM; in data set [4] (72 h), 7 nM. In addition, in data set [5], the “in-vivo antitumor activity of the human esophageal cancer KYSE-150 (in words)” value was “good in-vivo antitumor activity”.
